Numbers after ± are expanded uncertainties.
Columns and labels:
[1] = cn = amount concentration of the nth substance listed, in mol/dm3; settings: Ring tensiometer
[2] = Ring tensiometer

CCCCCCCCCCCCOS(=O)(=O)[O-].[Na+] [sodium dodecyl sulfate] + O
surface tension liquid-gas [mN/m], [1]
Settings	293 K	303 K	313 K
c1 = 1e-08	72.8 ± 1.3	71.2 ± 1.3	69.6 ± 1.3
c1 = 1e-07	72.9 ± 1.3	71.19 ± 1.3	69.6 ± 1.3
c1 = 1e-06	72.79 ± 1.3	71.17 ± 1.3	69.58 ± 1.3
c1 = 3.98e-06	72.78 ± 1.3	71.15 ± 1.3	69.56 ± 1.3
c1 = 7.94e-06	72.76 ± 1.3	71.14 ± 1.3	69.53 ± 1.3
c1 = 1e-05	72.75 ± 1.3	71 ± 1.3	69.51 ± 1.3
c1 = 5.01e-05	72.69 ± 1.3	70.81 ± 1.3	69.48 ± 1.3
c1 = 6.31e-05	72.46 ± 1.3	70.59 ± 1.3	69.27 ± 1.3
c1 = 0.0001	72.24 ± 1.3	70.01 ± 1.3	69.05 ± 1.3
c1 = 0.0002	71.62 ± 1.3	69.29 ± 1.3	67.85 ± 1.3
c1 = 0.000631	68.1 ± 1.3	66.62 ± 1.3	65.14 ± 1.3
c1 = 0.000794	66.25 ± 1.3	65.21 ± 1.3	64.01 ± 1.2
c1 = 0.001	64.32 ± 1.2	63.87 ± 1.2	62.73 ± 1.2
c1 = 0.002	57.43 ± 1.2	57.02 ± 1.2	55.94 ± 1.2
c1 = 0.00398	49.72 ± 1.2	49.52 ± 1.2	48.45 ± 1.2
c1 = 0.00631	43.37 ± 1.1	42.98 ± 1.1	41.7 ± 1.1
c1 = 0.00794	38.88 ± 1.1	38.34 ± 1.1	36.91 ± 1.1
c1 = 0.00832	38.4 ± 1.1	38.21 ± 1.1	36.42 ± 1.1
c1 = 0.01	38.4 ± 1.1	38.21 ± 1.1	36.42 ± 1.1

CCCCCCCCCCCCCCCCS(=O)(=O)[O-].[Na+] [sodium hexadecylsulfonate] + O
surface tension liquid-gas [mN/m], [1]
Settings	293 K	303 K	313 K
c1 = 1e-08	72.8 ± 1.3	71.2 ± 1.3	69.6 ± 1.3
c1 = 1e-07	72.8 ± 1.3	71.19 ± 1.3	69.6 ± 1.3
c1 = 1e-06	72.7 ± 1.3	71.15 ± 1.3	69.55 ± 1.3
c1 = 3.98e-06	72.6 ± 1.3	70.99 ± 1.3	69.42 ± 1.3
c1 = 5.01e-06	72.5 ± 1.3	70.89 ± 1.3	69.31 ± 1.3
c1 = 6.03e-06	72.4 ± 1.3	70.77 ± 1.3	69.21 ± 1.3
c1 = 7.94e-06	72.3 ± 1.3	70.69 ± 1.3	69.09 ± 1.3
c1 = 1e-05	72.2 ± 1.3	70.54 ± 1.3	68.99 ± 1.3
c1 = 2e-05	71.6 ± 1.3	69.98 ± 1.3	68.41 ± 1.3
c1 = 6.03e-05	69 ± 1.3	68.49 ± 1.3	67.04 ± 1.3
c1 = 0.0001	66.2 ± 1.3	65.54 ± 1.3	64.15 ± 1.2
c1 = 0.0002	59.15 ± 1.2	58.94 ± 1.2	58.84 ± 1.2
c1 = 0.000603	43.23 ± 1.1	43.17 ± 1.1	43.12 ± 1.1
c1 = 0.000741	40.28 ± 1.1	40.07 ± 1.1	39.97 ± 1.1
c1 = 0.000891	–	38.59 ± 1.1	38.55 ± 1.1

CCCCCCCCCCCCN(C)CC(=O)[O-].[Na+] [sodium laurylsarcosinate] + O
surface tension liquid-gas [mN/m], [1]
Settings	293 K	303 K	313 K
c1 = 1e-07	72.4 ± 1.3	71.19 ± 1.3	69.59 ± 1.3
c1 = 5.01e-07	72.2 ± 1.3	71.15 ± 1.3	69.56 ± 1.3
c1 = 1e-06	72 ± 1.3	71.1 ± 1.3	69.52 ± 1.3
c1 = 5.01e-06	71.6 ± 1.3	70.72 ± 1.3	69.2 ± 1.3
c1 = 1e-05	71.4 ± 1.3	70.28 ± 1.3	68.83 ± 1.3
c1 = 5.01e-05	69 ± 1.3	67.57 ± 1.3	66.49 ± 1.3
c1 = 0.0001	65.5 ± 1.3	65.33 ± 1.3	64.45 ± 1.2
c1 = 0.000501	48.6 ± 1.2	48.46 ± 1.2	48.32 ± 1.2
c1 = 0.000631	46.3 ± 1.1	46.1 ± 1.1	46 ± 1.1
c1 = 0.000708	44.9 ± 1.1	44.03 ± 1.1	43.82 ± 1.1
c1 = 0.000794	43.6 ± 1.1	42.91 ± 1.1	42.71 ± 1.1
c1 = 0.000891	42.3 ± 1.1	41.85 ± 1.1	41.15 ± 1.1
c1 = 0.001	41.1 ± 1.1	40.33 ± 1.1	39.51 ± 1.1
c1 = 0.002	32.9 ± 1.1	32.39 ± 1.1	31.83 ± 1.1
c1 = 0.00316	28.3 ± 1.1	28 ± 1.1	27.5 ± 1.1
c1 = 0.00398	26.9 ± 1.1	26.65 ± 1.1	26.12 ± 1.1
c1 = 0.00501	26.5 ± 1.1	26.45 ± 1.1	25.48 ± 1.1
c1 = 0.01	26.5 ± 1.1	26.45 ± 1.1	25.42 ± 1.1

CCCCCCCCCCCCCC[N+](C)(C)C.[Br-] [tetradecyltrimethylammonium bromide] + O
surface tension liquid-gas [mN/m], [1]
Settings	293 K	313 K
c1 = 1e-07	72.4 ± 1.3	69.59 ± 1.3
c1 = 5.01e-07	72.3 ± 1.3	69.54 ± 1.3
c1 = 1e-06	72.2 ± 1.3	69.48 ± 1.3
c1 = 5.01e-06	71.7 ± 1.3	69.03 ± 1.3
c1 = 1e-05	71.6 ± 1.3	68.49 ± 1.3
c1 = 5.01e-05	70.8 ± 1.3	67.49 ± 1.3
c1 = 0.0001	69.9 ± 1.3	66.58 ± 1.3
c1 = 0.0002	66.7 ± 1.3	63.61 ± 1.2
c1 = 0.000501	59.1 ± 1.2	58.43 ± 1.2
c1 = 0.000631	56.1 ± 1.2	55.41 ± 1.2
c1 = 0.000708	54.6 ± 1.2	53.85 ± 1.2
c1 = 0.000794	53.7 ± 1.2	52.61 ± 1.2
c1 = 0.000891	52.7 ± 1.2	51.54 ± 1.2
c1 = 0.001	51.9 ± 1.2	50.21 ± 1.2
c1 = 0.002	43.7 ± 1.1	42.65 ± 1.1
c1 = 0.00316	36.7 ± 1.1	36.05 ± 1.1
c1 = 0.00398	36.3 ± 1.1	35.38 ± 1.1
c1 = 0.00501	36.3 ± 1.1	35.38 ± 1.1
c1 = 0.00708	36.3 ± 1.1	35.38 ± 1.1
c1 = 0.01	36.3 ± 1.1	35.38 ± 1.1

O [water]
[2]
Settings	surface tension liquid-gas [mN/m]
293 K	72.8 ± 1.3
303 K	71.2 ± 1.3
313 K	69.6 ± 1.3

O [water] + CCCCCCCCCCCCCCCCS(=O)(=O)[O-].[Na+]
[1], c2 = 0
Settings	surface tension liquid-gas [mN/m]
293 K	72.8 ± 1.3
303 K	71.2 ± 1.3
313 K	69.6 ± 1.3

O [water] + CCCCCCCCCCCCCCCC[N+](C)(C)C.[Br-]
[1], c2 = 0
Settings	surface tension liquid-gas [mN/m]
293 K	72.8 ± 1.3
303 K	71.2 ± 1.3
313 K	69.6 ± 1.3

O [water] + CCCCCCCCCCCCCCCC[n+]1ccccc1.[Br-]
[1], c2 = 0
Settings	surface tension liquid-gas [mN/m]
293 K	72.8 ± 1.3
303 K	71.2 ± 1.3
313 K	69.6 ± 1.3

O [water] + CCCCCCCCCCCCCC[N+](C)(C)C.[Br-]
[1], c2 = 0
Settings	surface tension liquid-gas [mN/m]
293 K	72.8 ± 1.3
313 K	69.6 ± 1.3

O [water] + CCCCCCCCCCCCN(C)CC(=O)[O-].[Na+]
[1], c2 = 0
Settings	surface tension liquid-gas [mN/m]
293 K	72.8 ± 1.3
303 K	71.2 ± 1.3
313 K	69.6 ± 1.3

O [water] + CCCCCCCCCCCCOS(=O)(=O)[O-].[Na+]
[1], c2 = 0
Settings	surface tension liquid-gas [mN/m]
293 K	72.8 ± 1.3
303 K	71.2 ± 1.3
313 K	69.6 ± 1.3

O [water] + CCCCCCCCCCCC[N+](C)(C)CC.[Br-]
[1], c2 = 0
Settings	surface tension liquid-gas [mN/m]
293 K	72.8 ± 1.3
303 K	71.2 ± 1.3
313 K	69.6 ± 1.3

O [water] + CCCCCCCCCCCC[N+](C)(C)Cc1ccccc1.[Br-]
[1], c2 = 0
Settings	surface tension liquid-gas [mN/m]
293 K	72.8 ± 1.3
303 K	71.2 ± 1.3
313 K	69.6 ± 1.3
